Patent publication US7105576B2, “Synergistic effects of nuclear transcription factor NF-κB inhibitors and anti-neoplastic agents” (priority 2002, dated 2006)

How the values were obtained:
[1] = system: MDA-MB-435 breast cancer cells; assay: Breast cancer metastasis after primary tumor removal, mammary fatpad xenograft; assay type: in vivo, female nude mice; settings: for Incidence of macroscopic lung metastases / Median range of mets: 5 weeks after tumor removal; for Incidence of macroscopic lung metastases: paclitaxel 10 mg/kg i.p. day 10, 17, 24, 2% curcumin (w/w) diet; for Mean tumor Weight: MDA-MB-435 mammary fatpad tumors in nude mice; for Mean tumor Weight / Median range of mets: paclitaxel 10 mg/kg i.p., 2% curcumin diet; for Median range of mets: number of macroscopic lung metastases
Experimental: Human breast cancer cells (MDA-MB-231 or MDA-MB-435) that express constitutively active NF-κB can be injected into the mammary fatpad of female nude mice as previously described (127). […] Two millions MDA-MB-435 breast cancer cells were injected into the mammary fatpad of female nude mice. […] The treatment continue for up to 5 weeks after tumor removal, at which time the mice were killed and the number of visible metastases and presence of recurrent tumors or metastases in other organs were recorded. The lungs were fixed in 10% buffered formalin and paraffin-embedded section were stained with H&E to determine the incidence of micrometastases, or with antibodies recognizing the p65 subunit of NF-κB and HER2/neu. […] The significance of differences in the incidence of lung metastasis in the different groups was assessed using Fisher's exact test.

[2] = system: MCF-7 cells; assay: Cell viability by the MTT method; assay type: cell-based, human; settings: taxol 10 μM with or without curcumin 10 μM, 72 h
[3] = system: NF-κB; assay: EMSA of TNF-dependent NF-κB activation in MDA-MB 435 cells; assay type: cell-based, human; settings: curcumin 0 to 50 μM 4 h, then 0.1 nM TNF 30 min
Experimental: MCF-7 cells treated with 0 and 0.1 nM TNF was included as negative and positive control. […] The nuclear extracts were prepared and analyzed by EMSA. The specificity of NF-κB can be examined by supershift analysis using antibodies against p50 and p65 subunits of NF-κB as described (109).

[4] = system: BT20, SKBR3, MCF-7, T47D, and ZR75-1; settings: reference 63; cited from earlier work
[5] = system: NF-κB; assay: EMSA of paclitaxel-induced NF-κB activation in MCF-7 cells; assay type: cell-based, human; settings: curcumin pretreatment 2 h, then taxol 30 μM 12 hrs, EMSA of nuclear extract
Experimental: Nuclear extract was prepared and EMSA performed using 8 μg of nuclear protein. […] The nuclear extracts were prepared and analyzed by EMSA. The specificity of NF-κB can be examined by supershift analysis using antibodies against p50 and p65 subunits of NF-κB as described (109).

| Structure (SMILES) | Incidence of macroscopic lung metastases [1] [%] | Mean tumor Weight [1] [g] | Median range of mets [1] | cytotoxic effects of paclitaxel (cell viability, MTT) [2] | TNF-dependent NF-κB activation [3] | Growth of breast tumor cell lines [4] | paclitaxel-induced NF-κB induction [5] | effect on breast cancer metastases to the lung ([1]; mouse xenograft model, Table 1 and FIG. 5) |
| --- | --- | --- | --- | --- | --- | --- | --- | --- |
| CC(=O)O[C@H]1C(=O)[C@@]2(C)[C@H]([C@H](OC(=O)c3ccccc3)[C@]3(O)C[C@H](OC(=O)[C@H](O)[C@@H](NC(=O)c4ccccc4)c4ccccc4)C(C)=C1C3(C)C)[C@]1(OC(C)=O)CO[C@@H]1C[C@@H]2O [paclitaxel, Paclitaxel] | 83 | 0.74 ± 0.4 | 20 (0–>100) |  |  |  |  |  |
| COc1cc(/C=C/C(=O)CC(=O)/C=C/c2ccc(O)c(OC)c2)ccc1O [Curcumin, diferuloylmethane] | 71 | 0.71 ± 0.3 | 5 (0–44) | enhances the cytotoxic effects of paclitaxel | inhibited TNF-dependent NF-κB activation | completely inhibited | downregulated paclitaxel-induced NF-κB induction in MCF-7 cells in a dose dependent manner | enhances the effect of paclitaxel and suppresses breast cancer metastases to the lung |
